Reference: ChEMBL document CHEMBL4715790, “An Unusual Binding Model of the Methyl 9-Anilinothiazolo[5,4-f] quinazoline-2-carbimidates (EHT 1610 and EHT 5372) Confers High Selectivity for Dual-Specificity Tyrosine Phosphorylation-Regulated Kinases” (J Med Chem, 2016)

Columns and labels:
[1] = molecular target: T1, Dual specificity tyrosine-phosphorylation-regulated kinase 3 (Homo sapiens, UniProt O43781); test: Inhibition of DYRK3 (unknown origin)
T1 sequence (O43781 whole entry): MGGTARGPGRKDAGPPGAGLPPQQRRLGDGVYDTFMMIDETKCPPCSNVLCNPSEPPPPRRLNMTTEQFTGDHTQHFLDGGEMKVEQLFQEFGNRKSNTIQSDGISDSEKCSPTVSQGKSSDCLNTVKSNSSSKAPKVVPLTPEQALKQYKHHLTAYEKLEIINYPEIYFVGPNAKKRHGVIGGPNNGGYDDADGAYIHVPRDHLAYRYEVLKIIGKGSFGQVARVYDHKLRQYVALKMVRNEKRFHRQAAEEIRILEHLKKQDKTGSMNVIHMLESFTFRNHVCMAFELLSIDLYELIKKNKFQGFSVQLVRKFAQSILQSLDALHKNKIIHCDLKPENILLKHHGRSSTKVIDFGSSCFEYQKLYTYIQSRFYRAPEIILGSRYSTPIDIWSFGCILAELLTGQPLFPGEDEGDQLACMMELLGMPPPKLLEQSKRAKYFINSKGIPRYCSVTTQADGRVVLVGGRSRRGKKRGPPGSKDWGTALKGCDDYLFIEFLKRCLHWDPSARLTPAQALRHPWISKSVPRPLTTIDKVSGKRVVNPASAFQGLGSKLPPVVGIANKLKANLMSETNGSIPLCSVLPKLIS

[2] = molecular target: T2, Dual specificity tyrosine-phosphorylation-regulated kinase 2 (Homo sapiens) (UniProt Q92630); test: Binding affinity to DYRK2 (unknown origin) assessed as change in melting temperature of protein at 10 uM by Sypro-orange dye based DSF assay
T2 sequence (whole entry): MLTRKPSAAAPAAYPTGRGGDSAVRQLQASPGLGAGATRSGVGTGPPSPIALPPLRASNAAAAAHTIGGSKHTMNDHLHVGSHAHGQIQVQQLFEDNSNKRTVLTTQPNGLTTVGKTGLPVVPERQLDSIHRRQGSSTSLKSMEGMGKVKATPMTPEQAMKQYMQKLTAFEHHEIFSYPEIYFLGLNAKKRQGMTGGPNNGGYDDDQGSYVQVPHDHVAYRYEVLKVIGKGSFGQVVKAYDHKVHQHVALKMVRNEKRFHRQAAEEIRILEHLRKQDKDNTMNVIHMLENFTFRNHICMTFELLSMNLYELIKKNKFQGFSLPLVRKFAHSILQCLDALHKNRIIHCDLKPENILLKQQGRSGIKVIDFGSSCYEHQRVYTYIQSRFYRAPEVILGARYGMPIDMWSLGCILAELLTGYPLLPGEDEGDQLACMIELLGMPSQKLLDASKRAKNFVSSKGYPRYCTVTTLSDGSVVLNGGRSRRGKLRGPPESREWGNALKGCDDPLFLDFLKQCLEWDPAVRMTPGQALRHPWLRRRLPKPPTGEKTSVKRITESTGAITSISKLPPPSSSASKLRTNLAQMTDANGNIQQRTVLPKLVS

[3] = molecular target: Dual specificity protein kinase CLK2 (Homo sapiens, UniProt P49760); test: Inhibition of CLK2 (unknown origin)
Sequence of Dual specificity protein kinase CLK2 (P49760 whole entry): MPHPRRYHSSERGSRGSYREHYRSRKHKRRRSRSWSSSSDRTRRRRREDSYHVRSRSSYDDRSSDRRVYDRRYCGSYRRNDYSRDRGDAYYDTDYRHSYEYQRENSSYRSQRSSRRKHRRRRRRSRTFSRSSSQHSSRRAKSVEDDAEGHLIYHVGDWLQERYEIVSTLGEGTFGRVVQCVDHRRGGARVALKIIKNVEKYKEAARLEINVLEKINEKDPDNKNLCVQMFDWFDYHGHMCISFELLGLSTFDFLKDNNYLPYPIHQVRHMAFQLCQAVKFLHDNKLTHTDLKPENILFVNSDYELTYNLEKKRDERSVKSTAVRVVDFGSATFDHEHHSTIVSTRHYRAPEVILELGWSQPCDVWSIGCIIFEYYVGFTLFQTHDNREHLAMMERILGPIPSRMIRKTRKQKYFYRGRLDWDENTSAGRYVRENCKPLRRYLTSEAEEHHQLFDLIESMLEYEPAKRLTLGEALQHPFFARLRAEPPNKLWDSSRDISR

[4] = molecular target: T3, Dual specificity tyrosine-phosphorylation-regulated kinase 2 (Homo sapiens, UniProt Q92630); test: Inhibition of DYRK2 (unknown origin)
T3 sequence (Q92630 whole entry): T2 sequence (whole entry)

[5] = molecular target: Dual specificity tyrosine-phosphorylation-regulated kinase 1A (Homo sapiens) (UniProt Q13627); test: Binding affinity to 6x-His-tagged DYRK1A (unknown origin) assessed as change in melting temperature of protein at 10 uM by Sypro-orange dye based DSF assay
[6] = molecular target: T4, Dual specificity protein kinase CLK1 (Homo sapiens, UniProt P49759); test: Binding affinity to CLK1 (unknown origin) assessed as change in melting temperature of protein at 10 uM by Sypro-orange dye based DSF assay
Target sequence in this assay (P49759 whole entry, looked up): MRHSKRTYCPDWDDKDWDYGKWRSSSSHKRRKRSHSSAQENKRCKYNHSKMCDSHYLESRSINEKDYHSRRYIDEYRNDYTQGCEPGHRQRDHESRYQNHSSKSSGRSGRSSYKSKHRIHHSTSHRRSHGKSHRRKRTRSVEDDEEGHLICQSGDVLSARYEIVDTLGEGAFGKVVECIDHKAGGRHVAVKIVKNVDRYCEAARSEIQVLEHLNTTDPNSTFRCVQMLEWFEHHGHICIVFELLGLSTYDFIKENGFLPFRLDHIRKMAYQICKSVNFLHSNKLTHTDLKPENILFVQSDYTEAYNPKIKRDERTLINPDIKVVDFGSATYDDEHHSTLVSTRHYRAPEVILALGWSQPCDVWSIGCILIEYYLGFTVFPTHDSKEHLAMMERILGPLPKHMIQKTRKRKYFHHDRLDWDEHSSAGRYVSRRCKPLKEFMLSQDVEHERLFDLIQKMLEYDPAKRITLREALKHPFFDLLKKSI

[7] = molecular target: Dual specificity protein kinase CLK4 (Homo sapiens, UniProt Q9HAZ1); test: Inhibition of CLK4 (unknown origin)
Sequence of Dual specificity protein kinase CLK4 (Q9HAZ1 whole entry): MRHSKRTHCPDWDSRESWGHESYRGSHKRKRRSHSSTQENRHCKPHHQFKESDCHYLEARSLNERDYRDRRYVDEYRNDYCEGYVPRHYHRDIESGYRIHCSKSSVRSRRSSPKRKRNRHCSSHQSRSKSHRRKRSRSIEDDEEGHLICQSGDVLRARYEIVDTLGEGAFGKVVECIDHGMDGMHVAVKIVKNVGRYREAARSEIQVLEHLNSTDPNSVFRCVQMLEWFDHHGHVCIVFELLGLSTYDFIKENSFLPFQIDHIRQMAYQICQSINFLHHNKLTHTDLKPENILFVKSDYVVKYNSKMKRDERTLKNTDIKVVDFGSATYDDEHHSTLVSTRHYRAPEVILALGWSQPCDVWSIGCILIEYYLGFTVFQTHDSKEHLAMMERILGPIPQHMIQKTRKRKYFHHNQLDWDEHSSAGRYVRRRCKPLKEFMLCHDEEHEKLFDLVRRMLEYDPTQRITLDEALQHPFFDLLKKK

[8] = molecular target: T5, Glycogen synthase kinase-3 beta (Homo sapiens, UniProt P49841); test: Binding affinity to GSK3B (unknown origin) assessed as change in melting temperature of protein at 10 uM by Sypro-orange dye based DSF assay
Target sequence in this assay (P49841 whole entry, looked up): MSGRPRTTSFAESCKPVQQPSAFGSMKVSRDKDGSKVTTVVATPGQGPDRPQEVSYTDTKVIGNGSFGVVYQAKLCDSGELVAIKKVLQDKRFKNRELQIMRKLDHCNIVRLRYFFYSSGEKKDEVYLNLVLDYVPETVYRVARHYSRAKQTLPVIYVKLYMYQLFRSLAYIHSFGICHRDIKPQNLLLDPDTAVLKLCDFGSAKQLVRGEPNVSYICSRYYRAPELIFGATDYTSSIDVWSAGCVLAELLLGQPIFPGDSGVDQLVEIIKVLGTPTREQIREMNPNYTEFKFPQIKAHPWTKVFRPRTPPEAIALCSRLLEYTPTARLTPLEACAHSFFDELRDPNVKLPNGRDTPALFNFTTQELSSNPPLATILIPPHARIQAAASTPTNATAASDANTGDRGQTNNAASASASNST

[9] = molecular target: T6, Dual specificity tyrosine-phosphorylation-regulated kinase 4 (Homo sapiens, UniProt Q9NR20); test: Inhibition of DYRK4 (unknown origin)
T6 sequence (Q9NR20 whole entry): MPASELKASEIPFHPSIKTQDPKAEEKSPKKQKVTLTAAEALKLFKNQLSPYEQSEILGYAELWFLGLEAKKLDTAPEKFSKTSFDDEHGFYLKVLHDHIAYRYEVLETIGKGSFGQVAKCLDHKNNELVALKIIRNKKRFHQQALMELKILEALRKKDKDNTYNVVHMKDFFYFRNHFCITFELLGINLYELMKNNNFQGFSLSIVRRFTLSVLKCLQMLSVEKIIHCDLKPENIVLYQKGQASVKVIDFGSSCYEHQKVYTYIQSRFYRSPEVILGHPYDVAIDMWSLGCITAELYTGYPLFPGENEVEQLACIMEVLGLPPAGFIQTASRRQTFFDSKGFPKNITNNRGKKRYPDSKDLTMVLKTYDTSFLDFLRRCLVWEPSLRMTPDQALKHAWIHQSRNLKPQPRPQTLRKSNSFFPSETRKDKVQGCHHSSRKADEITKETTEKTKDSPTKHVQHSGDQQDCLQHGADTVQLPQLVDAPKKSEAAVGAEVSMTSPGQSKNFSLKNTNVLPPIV

[10] = molecular target: T4, Dual specificity protein kinase CLK1; test: Inhibition of CLK1 (unknown origin)
Target sequence in this assay (P49759 whole entry): as the sequence (P49759 whole entry, looked up) above

[11] = molecular target: Glycogen synthase kinase-3 alpha (Homo sapiens, UniProt P49840); test: Inhibition of GSK3A (unknown origin)
Sequence of Glycogen synthase kinase-3 alpha (P49840 whole entry): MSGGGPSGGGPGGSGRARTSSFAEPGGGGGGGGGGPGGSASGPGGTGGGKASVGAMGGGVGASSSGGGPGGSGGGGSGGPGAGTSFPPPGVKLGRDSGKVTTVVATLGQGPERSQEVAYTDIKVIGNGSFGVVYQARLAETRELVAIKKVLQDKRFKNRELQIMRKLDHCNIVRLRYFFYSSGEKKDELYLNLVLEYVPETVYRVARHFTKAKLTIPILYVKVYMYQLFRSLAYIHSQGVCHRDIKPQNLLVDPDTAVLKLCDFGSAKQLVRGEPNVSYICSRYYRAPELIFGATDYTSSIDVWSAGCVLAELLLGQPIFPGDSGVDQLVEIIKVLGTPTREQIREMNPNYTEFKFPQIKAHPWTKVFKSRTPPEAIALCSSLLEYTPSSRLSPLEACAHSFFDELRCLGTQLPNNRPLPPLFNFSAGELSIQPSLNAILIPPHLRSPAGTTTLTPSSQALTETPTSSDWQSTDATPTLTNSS

[12] = molecular target: Dual specificity protein kinase CLK3 (Homo sapiens, UniProt P49761); test: Inhibition of CLK3 (unknown origin)
Sequence of Dual specificity protein kinase CLK3 (P49761 whole entry): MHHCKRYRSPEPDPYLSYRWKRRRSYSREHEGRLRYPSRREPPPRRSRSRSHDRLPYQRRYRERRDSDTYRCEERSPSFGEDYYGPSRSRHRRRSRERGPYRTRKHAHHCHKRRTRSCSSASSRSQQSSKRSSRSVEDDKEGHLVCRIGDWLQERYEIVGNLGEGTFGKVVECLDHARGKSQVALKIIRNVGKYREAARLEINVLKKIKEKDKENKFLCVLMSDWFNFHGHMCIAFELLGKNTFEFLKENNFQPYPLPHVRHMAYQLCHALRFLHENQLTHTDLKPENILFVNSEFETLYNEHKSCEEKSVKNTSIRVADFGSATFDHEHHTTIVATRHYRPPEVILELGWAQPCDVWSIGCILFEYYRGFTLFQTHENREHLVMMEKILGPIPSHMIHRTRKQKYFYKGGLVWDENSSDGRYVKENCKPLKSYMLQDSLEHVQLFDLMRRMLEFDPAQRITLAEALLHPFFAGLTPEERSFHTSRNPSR

[13] = molecular target: T5, Glycogen synthase kinase-3 beta; test: Inhibition of GSK3B (unknown origin)
Target sequence in this assay (P49841 whole entry): as the sequence (P49841 whole entry, looked up) above

IC50 [1] [nM]	ΔTm [2] [°C]	IC50 [3] [nM]	IC50 [4] [nM]	ΔTm [5] [°C]	ΔTm [6] [°C]	IC50 [7] [nM]	ΔTm [8] [°C]	IC50 [9]	IC50 [10] [nM]	IC50 [11] [nM]	IC50 [12] [nM]	IC50 [13] [nM]	IC50 ([9]; read-out: IC50) [nM]	SMILES
93.2	5	88.8	10.8	9	5	59	5	Not Active	22.8	7.44	> 10000	221	–	COC(=N)c1nc2ccc3ncnc(Nc4ccc(Cl)cc4Cl)c3c2s1
21.1	5	32.5	3.16	9	5	32	5	–	11	9.11	1420	143	1570	COC(=N)c1nc2ccc3ncnc(Nc4ccc(OC)cc4F)c3c2s1
